Results taken from the supplement of paper PMC11619387.
Converted amounts (≈) assume the structure as drawn.

Columns and labels:
[1] = tested on: Pseudomonas aeruginosa PAO1-Xen41; assay: EC50 of growth/kill rate concentration-effect curve
Experimental: (§1)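 Time-kill assays of bioluminescent P. aeruginosa PAO1-Xen41 (start ~5e6 CFU/mL) in 96-well plates at 37 °C, 150 rpm. Luminescence was read hourly for 20 h in cation-adjusted Mueller-Hinton broth, either non-conditioned (MH broth with or without supplements) or conditioned by one of 13 CF-associated species, then filter-sterilised and nutrient-replenished. Growth/kill rates came from log-linear regression of the exponential phase at 9-10 antibiotic concentrations, and Hill (Emax) models were fitted with drc for each replicate.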

[2] = tested on: Pseudomonas aeruginosa PAO1-Xen41; assay: Hill coefficient of concentration-effect curve (unitless); higher = steeper concentration-effect curve
Experimental: as §1

[3] = tested on: Pseudomonas aeruginosa PAO1-Xen41; assay: Emax, maximal drug effect on net growth rate (fitted lower asymptote) (per hour (slope of log luminescence)); higher = weaker maximal killing (less negative)
Experimental: as §1

C[C@@H]1O[C@@H]1P(=O)(O)O [fosfomycin]
Details	EC50, [1] [µg/mL]	Emax, [3]	Hill coefficient, [2]
medium (conditioned by secondary species or non-conditioned control): A. baumannii	149 (≈ 1080 µM)	-0.132	2.21
medium (conditioned by secondary species or non-conditioned control): A. fumigatus	16.6 (≈ 120 µM)	-0.117	1.48
medium (conditioned by secondary species or non-conditioned control): A. xylosoxidans	201 (≈ 1450 µM)	-0.189	2.09
medium (conditioned by secondary species or non-conditioned control): B. cepacia	81.7 (≈ 592 µM)	-0.0776	3.68
medium (conditioned by secondary species or non-conditioned control): C. albicans	10.6 (≈ 77 µM)	-0.134	1.72
medium (conditioned by secondary species or non-conditioned control): H. influenzae	72.3 (≈ 524 µM)	-0.354	1.57
medium (conditioned by secondary species or non-conditioned control): M. abcessus	43.8 (≈ 318 µM)	-0.177	2.3
medium (conditioned by secondary species or non-conditioned control): M. avium	34.4 (≈ 249 µM)	-0.196	1.9
medium (conditioned by secondary species or non-conditioned control): M. catarrhalis	66.6 (≈ 483 µM)	-0.126	2.47
medium (conditioned by secondary species or non-conditioned control): MH broth	22.4 (≈ 163 µM)	-0.173	2.99
medium (conditioned by secondary species or non-conditioned control): MH broth + ADC	23.6	-0.194	2.25
medium (conditioned by secondary species or non-conditioned control): MH broth + LHB + NAD	47	-0.233	1.88
medium (conditioned by secondary species or non-conditioned control): MH broth + glucose	17.7	-0.136	1.47
medium (conditioned by secondary species or non-conditioned control): R. mannitolilytica	65.4 (≈ 473 µM)	-0.111	3.11
medium (conditioned by secondary species or non-conditioned control): S. aureus	47.35 (≈ 343 µM)	-0.122	3.29
medium (conditioned by secondary species or non-conditioned control): S. maltophilia	81.9 (≈ 593 µM)	-0.102	2.83
medium (conditioned by secondary species or non-conditioned control): S. pneumoniae	45.9 (≈ 332 µM)	-0.276	1.54

C[C@H]1[C@H](NC(=O)/C(=N\OC(C)(C)C(=O)O)c2csc(N)n2)C(=O)N1S(=O)(=O)O [aztreonam]
Details	EC50, [1] [µg/mL]	Emax, [3]	Hill coefficient, [2]
medium (conditioned by secondary species or non-conditioned control): A. baumannii	4.5 (≈ 10.3 µM)	-0.0894	6.71
medium (conditioned by secondary species or non-conditioned control): A. fumigatus	5.15 (≈ 11.8 µM)	-0.0521	5.79
medium (conditioned by secondary species or non-conditioned control): A. xylosoxidans	4.96 (≈ 11.4 µM)	-0.0816	6.69
medium (conditioned by secondary species or non-conditioned control): B. cepacia	4.4 (≈ 10.1 µM)	-0.108	7.76
medium (conditioned by secondary species or non-conditioned control): C. albicans	6.25 (≈ 14.4 µM)	-0.0614	3.57
medium (conditioned by secondary species or non-conditioned control): H. influenzae	5.7 (≈ 13.1 µM)	-0.196	1.98
medium (conditioned by secondary species or non-conditioned control): M. abcessus	4.66 (≈ 10.7 µM)	-0.0657	6.22
medium (conditioned by secondary species or non-conditioned control): M. avium	4.58 (≈ 10.5 µM)	-0.0782	6.26
medium (conditioned by secondary species or non-conditioned control): M. catarrhalis	5.07 (≈ 11.6 µM)	-0.16	4.2
medium (conditioned by secondary species or non-conditioned control): MH broth	4.48 (≈ 10.3 µM)	-0.0757	7.92
medium (conditioned by secondary species or non-conditioned control): MH broth + ADC	4.55	-0.0421	5.14
medium (conditioned by secondary species or non-conditioned control): MH broth + LHB + NAD	4.7	-0.148	3.43
medium (conditioned by secondary species or non-conditioned control): MH broth + glucose	5.04	-0.0548	4.64
medium (conditioned by secondary species or non-conditioned control): R. mannitolilytica	4.356 (≈ 10 µM)	-0.0751	7.94
medium (conditioned by secondary species or non-conditioned control): S. aureus	4.88 (≈ 11.2 µM)	-0.072	4.66
medium (conditioned by secondary species or non-conditioned control): S. maltophilia	4.32 (≈ 9.92 µM)	-0.114	3.3
medium (conditioned by secondary species or non-conditioned control): S. pneumoniae	5.6 (≈ 12.9 µM)	-0.138	3.85
